Experimental findings from PubChem BioAssay (NCI) are described below.

Values joined by “and” are separate entries in the source; they are usually repeats but may differ in a detail not shown here. Equal entries are not always repeated.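 Test compounds were applied to cells in 96-well plates for 48 hours at 5 doses. GI50 is the concentration that inhibits growth by half. The concentration for full growth arrest is given as TGI.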 Where only a bound is given, the exact number is not on record here.

What all share (assay): DTP human tumour cell line panel, 48 h
Test [1] concerns A549 NSCLC.
For test [2], the system named is MALME-3M melanoma.
Test [3] deals with NCI-H522 lung.
The test system of test [4] is RPMI-8226 leukemia.
Test [5] concerns SK-MEL-5 melanoma.
The subject of test [6] is SN12C renal.
For test [7], the system named is SW-620 colon.
Test [8] has as its system UO-31 renal.
Test [9] concerns SK-OV-3 ovarian.
Test [10] concerns HOP-92 NSCLC.

Broadly, the GI50 is the concentration at which growth is held to half of that of the control. Broadly, the TGI is the concentration giving total growth inhibition. A lower TGI goes with greater sensitivity of the cells.

Consider `N.N.N.N.N.N#N.[Cl-].[Os+7]`, for which the GI50 in test [1] is over 100 µM; in [2] it was over 100000 nM; in test [3], over 100 µM; in [4] it was over 100000 nM; in [5], over 100000 nM; in test [6], over 100 µM. Besides, the GI50 in test [7] and in [8] was over 100 µM throughout. The TGI in [1], in [2], in test [3], in test [4], in test [5] and in test [6] was over 100 µM each time. Also, the TGI in test [7] and in [8] was over 100 µM in each case.
In the case of `O=C(c1ccccn1)c1nc(-c2ccc(Cl)c(Cl)c2)nc2ccc(Cl)cc12`, the TGI in test [1], in test [2], in test [4], in [5], in test [9] and in test [7] was over 100 µM each time. The molecule further gave a TGI in [8] of over 100 µM.
Take `C=CC[N+]1(CCO)CCN=C1CCCCCCCCCCCCC` (stereo unspecified): the GI50 in test [1] was 1.83 µM; in test [2], 1600 nM; in [5] it was 1600 nM; in [9], 1.73 µM; in test [6], 1.46 µM; in test [7], 1.63 µM. For the same molecule, the GI50 in test [8] was 1.18 µM. The TGI in test [1] turned out to be 3.3 µM; in test [2], 3.18 µM; in test [5] it was 2.95 µM; in [9] it was 3.14 µM; in [6], 2.85 µM; in [7] it was 2.98 µM. Moreover, the TGI in test [8] stood at 2.57 µM.
`O=C(O)c1c([N+](=O)[O-])cc(C(F)(F)F)cc1[N+](=O)[O-]`: the TGI in [1], in test [10], in test [3], in test [4], in [5] and in [6] was over 100 µM each time. For the same molecule, the TGI in test [7] and in test [8] was over 100 µM in each case.
In the case of `Cc1cc2c(=O)cc(-c3ccc(C(F)(F)F)cc3)oc2c(C(=O)O)c1C`, the TGI in test [1], in [2], in [3], in test [4], in test [5] and in test [9] was over 100 µM in each case. The TGI in test [6], in test [7] and in test [8] was over 100 µM each time.
With `Cc1coc2c1CC1OC1(C)CCC1OC1(C)C2` (stereo unspecified), the TGI in [1], in [10], in test [3], in [4], in test [5] and in test [9] was over 100 µM in each case. Also, the TGI in [6], in [7] and in test [8] was over 100 µM each time.
With `COc1cc(-c2cc(-c3nc4cc(Cl)c(Cl)cc4[nH]3)[nH]n2)cc(OC)c1OC`, the GI50 is 2.87 µM in [1]; 2700 nM in test [2]; 2.02 µM in test [3]; 1750 nM in test [4]; 1560 nM in test [5]; 17.3 µM in test [9]. Besides, the GI50 in test [6] was 3.05 µM; in [7] it was 4.47 µM; in [8], 2.47 µM. Moreover, the concentration for total growth inhibition (TGI) amounted to 10.5 µM in [1]; 12.4 µM in test [2]; 5.66 µM in [3]; 4.39 µM in [4]; 3.24 µM in test [5]; 53 µM in [9]. Also, the total growth inhibition concentration (TGI) in [6] came out at 13.4 µM; in [7] it was 19.1 µM; in test [8], 8.48 µM.
Regarding `CCCCNC(=O)OCC(COc1ccccc1OC)OC(=O)NCCCC` (stereo unspecified), the TGI in [1], in test [2], in test [3], in test [4], in test [5] and in test [9] was over 100 µM each time. In addition, the TGI in test [6], in [7] and in [8] was over 100 µM throughout.
On to `Clc1nc(Cl)c2ncn(C/C=C/Cn3cnc4c(Cl)nc(Cl)nc43)c2n1`, for which the GI50 was 13.2 µM in [1]; 31200 nM in [2]; 6.75 µM in test [3]; 10400 nM in [4]; 16500 nM in test [5]; 44.3 µM in test [9]. Besides, the values for the GI50 in test [6], in test [7] and in test [8] were 19.7 µM, 8.72 µM and 17.9 µM, respectively. The TGI in [1] is 32 µM; in test [2] it was 52.5 µM; in test [3], 22.7 µM; in test [4], 25.8 µM; in [5] it was 31.1 µM; in [9], over 100 µM. Moreover, the results for the TGI in [6], in test [7] and in [8] were 40.7 µM, 22.5 µM and 34.5 µM, respectively.
Consider `CC1(C(=O)NCCN(CCNC(=O)C2(C)CC3(C)CC(C)(C2)C(=O)NC3=O)CCNC(=O)C2(C)CC3(C)CC(C)(C2)C(=O)NC3=O)CC2(C)CC(C)(C1)C(=O)NC2=O` (stereo unspecified), for which the TGI in test [1], in [4], in test [9], in test [6], in test [7] and in test [8] was over 100 µM in each case.
Turning to `COc1ccc2c(c1)C(=O)c1c-2c(OCCN(C)C)nc2cc(OC)ccc12`, the GI50 in [1] is 0.804 µM; in test [10], 1650 nM; in test [3] it was 0.75 µM; in test [4] it was 1710 nM; in [5], 1730 nM; in test [6], 1.06 µM. Moreover, the GI50 is 0.446 µM in test [7] and 1.16 µM in test [8]. The TGI in test [1] came to 2.8 µM; in [10], 7.02 µM; in test [3] it was 2.66 µM; in [4], 5.09 µM; in [5], 3.38 µM; in test [6], 2.69 µM. Besides, the TGI in test [7] is 1.73 µM; in [8] it was 2.66 µM.
`COc1ccc(C2=CC(c3ccc(Oc4ccnc5cc(Cl)ccc45)c(OC)c3)c3c(nc(OC)[nH]c3=O)N2)cc1` (stereo unspecified): the GI50 is 5.66 µM in test [1]; over 100000 nM in test [2]; 3.18 µM in [3]; 2730 nM in test [4]; 7280 nM in test [5]; over 100 µM in test [9]. In addition, the values for the GI50 in [6], in [7] and in [8] were 7.03 µM, 4.34 µM and 5.97 µM, respectively. For the same molecule, the TGI in test [1] was over 100 µM; in test [2], over 100 µM; in [3], 47.2 µM; in test [4] it was 7.27 µM; in [5], 34.1 µM; in test [9], over 100 µM. For the same molecule, the TGI in test [6], in [7] and in test [8] was over 100 µM each time.
As to `COc1cc(-c2nc(-c3nnc(-c4ccc(F)c(Cl)c4)o3)c3ccccn23)cc(OC)c1OC`, the GI50 in test [10] is 1550 nM; in test [3], 1.92 µM; in test [4], 1790 nM; in test [5] it was 3030 nM; in [6], 2.42 µM; in test [7], 3.05 µM. Besides, the GI50 in test [8] is 2.2 µM. For the same molecule, the TGI was 6.26 µM in test [10]; 4.66 µM in [3]; 5.65 µM in test [4]; over 100 µM in [5]; over 100 µM in [6]; over 100 µM in test [7]. Besides, the TGI in [8] turned out to be 7.64 µM.
As for `COC1=C(C)C(=O)C2=C(C1=O)C(CO)N1C(C#N)C3CC4C(C1C2N1CCOC41)N3C` (stereo unspecified), the GI50 in test [1] was 0.0375 µM; in test [10], 1.4 nM; in [4], 17.7 nM; in test [5] it was 2.64 nM and 26.2 nM; in test [7], 0.000811 µM. For the same molecule, the TGI in [1] was 7.84 µM and 11.1 µM and 11.8 µM; in [5], 0.214 µM and 0.0802 µM and 0.114 µM; in test [9], 1.32 µM and 2.7 µM and 1.7 µM; in test [7], 1.41 µM and 1.16 µM and 10.6 µM.
Regarding `C=CCC(N[C@@H](CO)c1ccccc1)c1ccccn1` (stereo partly specified), the GI50 in test [1] was over 100 µM; in [2], over 100000 nM; in [3], 25.8 µM; in [4], 32700 nM; in test [5], 56900 nM; in test [9], over 100 µM. In addition, the GI50 in test [6] is 22.9 µM; in test [7], over 100 µM; in [8] it was 93.4 µM. Further, the TGI in test [1], in [2], in test [3], in test [4], in [5] and in test [9] was over 100 µM each time. Further, the TGI in test [6], in [7] and in test [8] was over 100 µM in each case.
Turning to `COc1cc[c]([Sb]([Br])([CH]=C(C)C)([CH]=C(C)C)[CH]=C(C)C)cc1`, the GI50 in [1] is 11.3 µM; in [2], 2280 nM; in test [3] it was 2.48 µM; in [4], 868 nM; in [5], 3030 nM; in test [9], 8.94 µM. Besides, the figures for the GI50 in test [6], in test [7] and in [8] were 10.9 µM, 6.46 µM and 29.5 µM, respectively. The TGI in test [1] was over 100 µM; in test [2], over 100 µM; in test [3], 9.23 µM; in test [4], 5.47 µM; in [5] it was 9.92 µM; in test [9] it was 48.3 µM. The TGI was over 100 µM in [6], over 100 µM in [7] and 73.1 µM in test [8].
Take `Cc1cc(S(N)(=O)=O)c(S/C(=N\Nc2ccc([N+](=O)[O-])cc2)c2ccc(O)cc2)cc1Cl`: the GI50 was 4.06 µM in test [1]; 1730 nM in test [2]; 6.07 µM in [3]; 1660 nM in test [4]; 1860 nM in [5]; 4.32 µM in test [9]. Also, the GI50 in test [6] was 2.38 µM; in test [7] it was 3.54 µM; in [8], 5.66 µM. Also, the TGI was determined as 29.6 µM in test [1]; 4.37 µM in [2]; 43.5 µM in test [3]; 4.3 µM in [4]; 3.38 µM in [5]; 18.4 µM in test [9]. The TGI in [6] turned out to be 5.29 µM; in [7], 11.6 µM; in test [8], 23 µM.
Take `CC(C)(C)CC(C)(C)N(CSc1ccc(Cl)cc1)CSc1ccc(Cl)cc1`: the GI50 in [1] is 0.452 µM; in [3], 1.65 µM; in [4] it was 2170 nM; in test [5] it was 1290 nM; in [9], 2.68 µM; in test [6], 0.506 µM. For the same molecule, the GI50 in test [7] is 2.02 µM; in [8] it was 0.489 µM. Further, the TGI was determined as 7.7 µM in [1]; 3.08 µM in [3]; 5.11 µM in test [4]; 2.61 µM in test [5]; 12.4 µM in test [9]; 3.45 µM in [6]. The TGI in [7] was 4.93 µM; in test [8], 1.93 µM.
With `O=S(=O)(CC#CCCCOCC#Cc1ccccc1C#CCS(=O)(=O)c1ccccc1)c1ccccc1`, the GI50 was 33.6 µM in test [1]; 20600 nM in test [2]; 14.6 µM in [3]; 11600 nM in [4]; 15300 nM in test [5]; over 100 µM in test [9]. Further, the GI50 in test [6] was 18.3 µM; in [7], 28.6 µM; in test [8], 17.7 µM. Moreover, the TGI in test [1] is over 100 µM; in test [2], 59.7 µM; in [3], 33 µM; in [4] it was 31.4 µM; in [5], 31.8 µM; in [9], over 100 µM. The TGI in test [6] is 40.7 µM; in test [7], over 100 µM; in test [8], 35.4 µM.
For the molecule `COc1ccc2nc3ccccc3c(NCCCCCN(CCCl)CCCl)c2c1`, the TGI was 0.675 µM in test [1]; 0.719 µM in [10]; 0.017 µM in test [3]; 0.206 µM in [4]; 0.433 µM in [5]; 1.19 µM in test [7]. This molecule also yielded a TGI in test [8] of 0.418 µM.
